In patent US6482805B2 (Parker Hughes Institute, priority 1998, dated 2002):
Read-outs that look alike come from different tables or passages of the source.

What was measured:
sperm acrosome = experiment: Sperm acrosome and membrane integrity by FITC-lectin staining, confocal, SEM and TEM (Example 4); format: cell-based, human; details: for sperm head topography by scanning electron microscopy: 100 μM WHI compounds or 10 μM Cal A23187, 3 hours; for acrosome status by confocal microscopy (FITC-lectin) / acrosome-intact sperm: 100 μM; for acrosome status by confocal microscopy (FITC-lectin) / sperm head membranes by transmission electron microscopy / acrosome-intact sperm: 3 hours; for acrosome-intact sperm: method counts percentages of sperm with intact acrosome
Description: The percentages of sperm with an intact acrosome were evaluated by fluorescence microscopy (Olympus BX-60) following fixation and ethanol permeabilization of the sperm pellets and subsequent staining with fluorescein (FITC)-conjugated Pisum sativum lectin (Sigma). In positive control sperm, the acrosome reaction was induced by incubating (3 hours at 37° C.) the sperm suspension with 10 μm calcium ionophore (Cal) A23187 (Sigma). […] The percentage of sperm positive for PI were determined by flow cytometry using a FACS Vantage flow cytometer (Becton Dickinson and Co., Mountain View, Calif.). The sperm in the swim-up fractions were identified by their characteristic forward and 90° angle light scattering properties [O. J. D'Cruz and G. G. Haas, Jr. Fertil. Steril. 58, 633 (1992)]. All analyses were done using the 488-nm excitation from an krypton/argon laser with a 635-nm band pass filter for PI emission. The percentage of sperm positive for PI staining were determined using cutoff signals for membrane-intact motile sperm.
Ethanol permeabilized and air-dried sperm smears were stained sequentially with the three fluorescent markers, FITC-Pisum sativum, TOTO-3 iodide, and Nile red, each marking a different target (acrosome, nucleus, and plasma membrane of permeabilized sperm respectively). Samples were examined under a BioRad MRC-1024 Laser Scanning Confocal Microscope (BioRad Laboratories, Hercules, Calif.) equipped with a krypton/argon mixed gas laser (excitation lines 488, 568, and 647 nm) and mounted on a Nikon Eclipse E800 series upright microscope. The fluorescence emission of fluorescein, TOTO-3 iodide, and Nile red from the acrosomal region, nucleus, and the plasma membrane of sperm after ethanol permeabilization were simultaneously detected using the 598/40 nm, 522 DF32, and 680 DF32 emission/filter respectively. Confocal images were obtained using a Nikon 60× (NA 1.35) objective lens and Kalman collection filter. Digitized images were processed with the Adobe Photoshop software (Adobe Systems, Mountain View, Calif.). Final images were printed using a Fujix Pictography 3000 (Fuji Photo Film Co., Tokyo, Japan) color printer.
High-resolution low-voltage scanning electron microscopy was utilized for topographical imaging of different membrane domains over the sperm head as described [M. H. Stoffel et al. Molecular. Reprod. Develop. 34, 175 (1993); S. L. Erlandsen et al. Scanning 11, 169 (1989)]. […] Washed sperm suspensions were placed on 0.1% poly-L-lysine-coated glass chips and allowed to adhere to the glass over a 60 minute incubation period on ice. The supernatants were decanted, and adherent cells were fixed in 1% paraformaldehyde and 1% glutaraldehyde in 0.14 M sodium cacodylate buffer for 3 hours. To preserve plasma membrane integrity, sperm were post-fixed in 1% osmium tetroxide (OSO4) containing 0.1% ruthenium red in 0.14 M cacodylate buffer for 1 hour at 4° C. All samples were dehydrated through an ascending ethanol series, critical point dried, and coated with approximately 2 nm of platinum using ion beam sputtering with argon (4 mA at 10 ke V; Ion Tech Ltd., Middlesex, England). All samples were examined in a Hitachi S-900 SEM at an accelerating voltage of 2 keV. Sperm were observed under low magnification (×2,000-5000) and representative sperm were photographed under intermediate magnification (×18,000-25,000). In each specimen evaluated, at least 200 sperm were scanned for the intactness of sperm acrosomal region.
For transmission electron microscopy, treated sperm were fixed in 3% glutaraldehyde in 5% sucrose in 0.2 M cacodylate buffer for 3 hours at room temperature. The samples were post-fixed in 1% OSO4, 5% sucrose and 0.1% ruthenium red for 2 hours at 4° C. The samples were dehydrated in ascending ethanol series, and embedded in Spurr's epoxy. Thin sections (90 nm) were prepared on a Reichert-Jung Ultracut E and stained with uranyl acetate and lead citrate.

HIV-1 = experiment: Anti-HIV-1 activity, p24 antigen assay in infected PBMC (Example 1); format: cell-based; details: for IC50: read-out: IC50, HIV-1 replication (p24 antigen)
Description: Subsequently, cells were cultured in 96-well microtiter plates (100 μl/well; 2×10^6/ml, triplicate wells) in the presence and absence of various concentrations (0.00 μM to 100 μM) of drugs for 7 days. Aliquots of culture supernatants were removed from the wells on the 7th day after infection for p24 antigen enzyme immunoassay as an indication of viral replication. Erice et al. Antimicrob. Agents and Chemother. […] Agents and Chemother. […] Percent inhibition of virus replication was calculated by comparing the p24 antigen values from the test drug-treated infected cells with p24 antigen values from untreated infected cells. […] Cell viability was quantified by a colorimetric […] assay. F. M. Uckun et al., Antimicrob. Agents and Chemother.

Compound | sperm head topography by scanning electron microscopy (sperm acrosome) | acrosome status by confocal microscopy (FITC-lectin) (sperm acrosome) | sperm head membranes by transmission electron microscopy (sperm acrosome) | acrosome-intact sperm (sperm acrosome) | IC50 (HIV-1; human peripheral blood mononuclear cells, 7 days) | IC50 (HIV-1; Human immunodeficiency virus 1, PBMC, 168 h, human peripheral blood mononuclear cells, 7 days) | IC50 (HIV-1; Human immunodeficiency virus 1, PBMC, 168 h) | anti-HIV potency relative to N-9 (HIV-1; ratio of IC50 values)
5-bromo-6-methoxy-5,6-dihydro-3 ′-azidothymidine-5 ′-(p-methoxyphenyl) methoxyalaninyl phosphate [WHI-05] | intact acrosomes | uniform, bright green fluorescence | intactness of the plasma membrane, outer, and inner acrosomal membranes | 97.0±2.0 | 50 nM |  |  | 
CCCCCCCCCc1ccc(OCCOCCOCCOCCOCCOCCOCCOCCOCCO)cc1 [Compound N-9, nonoxynol-9, reference compound] |  | only acrosome-reacted sperm |  |  |  | 2200 nM |  | 
COC(=O)C(C)NP(=O)(OCC1OC(N2C(=O)NC(=O)C(C)(Br)C2OC)CC1N=[N+]=[N-])Oc1ccc(Br)cc1 (stereo not shown) [WHI-07, 5-Bromo-6-methoxy-5,6-dihydro-3′-azidothymidine-5′-(p-Bromophenyl Methoxyalaninyl Phosphate)] | mild acrosomal membrane ruffling | uniform, bright green fluorescence | intactness of the plasma membrane, outer, and inner acrosomal membranes | 93.0±5.6 |  |  | 5 nM | 439 fold
